Data on 11 compounds can be found in ChEMBL document CHEMBL1201862, “PubChem BioAssay data set” (2004).

Common to all, as to test: NCI anticancer screen, dose series, 48 h
The test system of experiment [1] is HOP-62.
Experiment [2] deals with HCT-15.
For experiment [3], the system named is OVCAR-8.
Experiment [4] relates to UACC-62.
In experiment [5] the test system is SK-OV-3.
Experiment [6] deals with SF-295.
In experiment [7] the test system is OVCAR-5.
The subject of experiment [8] is HT-29.
Experiment [9] deals with DLD-1.
For experiment [10], the system named is NCI-H23.
For experiment [11], the system named is HCT-116.
Experiment [12] has as its system NCI-H226.
Experiment [13] relates to NCI-H460.
Experiment [14] concerns SNB-75.
Experiment [15] relates to M14.
Experiment [16] deals with UACC-257.
Experiment [17] has as its system T47D.
In experiment [18] the test system is MDA-MB-435.
Experiment [19] has as its system MCF7.
Experiment [20] has as its system A498.

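Grown in 96-well plates, cells were treated for 48 hours with each compound at five concentrations. Insufficient inhibition: endpoint recorded as highest concentration tested. The concentration for 50% growth inhibition is given as GI50.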 Activity calls are given as the source filed them. Rule as the data show it: active = GI50 up to about 1.1 µM and inactive = higher. Where a SMILES comes first, the peptide text is derived from it. [ ]: non-standard residue; d: D form. The star is where a group is joined. Phe(4-NO2) = N[CH](Cc1ccc([N+](=O)[O-])cc1)C(=O)O; Boc = CC(C)(C)OC(=O)*; OBn = c1ccc(CO*)cc1 Where only a bound is given, the exact number is not on record here.

For the compound `Cc1ccc(NC(=O)CC2SC(=N)NC2=O)cc1C` (stereo unspecified), the GI50 in experiment [1] was > 100 µM (inactive); in [2], greater than 100 µM; in experiment [3], > 100 µM (inactive); in [4] it was > 100 µM (inactive); in [5] it was > 100 µM (inactive); in experiment [6], > 100 µM (inactive). The GI50 in experiment [7], in [8], in [9], in [10], in [11] and in experiment [12] was > 100 µM (inactive) in each case. In addition, the GI50 in experiment [13], in experiment [14], in [15] and in experiment [16] was > 100 µM (inactive) each time.

Turning to `O=C(CO[N+](=O)[O-])OC/C=C/c1ccccc1`, the GI50 is > 100 µM (inactive) in [1]; greater than 100 µM in [2]; > 100 µM (inactive) in experiment [3]; > 10 µM (inactive) in [4]; > 100 µM (inactive) in experiment [5]; > 100 µM (inactive) in experiment [6]. Also, the GI50 in experiment [7], in [8], in experiment [9], in experiment [10], in experiment [11] and in experiment [12] was > 100 µM (inactive) in each case. Besides, the GI50 in [13], in experiment [14], in experiment [15] and in experiment [16] was > 100 µM (inactive) each time.

On to `Clc1ccc(-c2nn3c(CCCCCCCCc4nnc5sc(-c6ccc(Cl)cc6)nn45)nnc3s2)cc1`, for which the GI50 in experiment [1] was 26.4 µM (inactive); in experiment [2], 26.3 µM; in experiment [17], 4.67 µM (inactive); in experiment [3], 18.7 µM (inactive); in experiment [18] it was 17 µM (inactive); in experiment [4] it was 32.4 µM (inactive). Also, the GI50 in experiment [5] is 30.1 µM (inactive); in experiment [19], 5.81 µM (inactive); in experiment [6] it was 17.6 µM (inactive); in [7] it was 36.3 µM (inactive); in experiment [8] it was 12.4 µM (inactive); in experiment [10], 27.1 µM (inactive). Further, the GI50 was 24.8 µM (inactive) in [20]; 15.9 µM (inactive) in experiment [11]; 25.6 µM (inactive) in experiment [12]; 26.9 µM (inactive) in experiment [13]; 19.9 µM (inactive) in experiment [14]; 18.7 µM (inactive) in experiment [15]. Moreover, the GI50 in experiment [16] is 12.3 µM (inactive).

For the compound `O=C(Nc1sccc1S(=O)(=O)c1ccc(Cl)cc1)c1ccc(Cl)cc1Cl`, the GI50 is > 100 µM (inactive) in experiment [1]; greater than 100 µM in [2]; 19.1 µM (inactive) in experiment [17]; > 100 µM (inactive) in [3]; 14.5 µM (inactive) in [18]; > 62.2 µM (inactive) in experiment [4]. The GI50 in [5] was > 100 µM (inactive); in experiment [19], 44.6 µM (inactive); in experiment [6] it was 37.8 µM (inactive); in experiment [7], > 84.5 µM (inactive); in experiment [8] it was > 76.2 µM (inactive); in [10], > 81.3 µM (inactive). Further, the GI50 was > 100 µM (inactive) in experiment [20]; > 100 µM (inactive) in [11]; > 100 µM (inactive) in [12]; > 95.7 µM (inactive) in experiment [13]; > 100 µM (inactive) in experiment [14]; > 100 µM (inactive) in experiment [15]. In experiment [16], the GI50 was 23.4 µM (inactive).

With `O=C1SC(SCc2ccccc2)=NC12CC2c1ccccc1` (stereo unspecified), the GI50 in experiment [1] was 29 µM (inactive); in experiment [2], 20.4 µM; in [17], 28.5 µM (inactive); in experiment [3] it was 19.4 µM (inactive); in experiment [18], 22.1 µM (inactive); in experiment [4], 17.1 µM (inactive). The GI50 in experiment [5] was 37.7 µM (inactive); in [19], 18.8 µM (inactive); in experiment [6] it was 19.7 µM (inactive); in [7] it was 18.5 µM (inactive); in experiment [8], 21.3 µM (inactive); in [10], 20.1 µM (inactive). The GI50 in experiment [20] was 25.5 µM (inactive); in [11], 16.6 µM (inactive); in experiment [12], 23.6 µM (inactive); in experiment [13] it was 18.7 µM (inactive); in experiment [14] it was 29.2 µM (inactive); in [15] it was 17.4 µM (inactive). Besides, the GI50 in experiment [16] was 16.8 µM (inactive).

For the compound `CCOC(=O)/C(=C\NC(=S)Nc1ccc(Cl)c(Cl)c1)C(=O)c1ccccc1`, the GI50 in experiment [1] was 40.6 µM (inactive); in experiment [2] it was 29.1 µM; in experiment [17], 7.82 µM (inactive); in experiment [3], 47.6 µM (inactive); in experiment [18], 17.7 µM (inactive); in experiment [4], 32.3 µM (inactive). Further, the GI50 in [5] is 36.2 µM (inactive); in experiment [19], 33.3 µM (inactive); in [6] it was 33.6 µM (inactive); in experiment [7], 36.2 µM (inactive); in [8], 33.1 µM (inactive); in [10], 8.61 µM (inactive). The GI50 in [20] is 3.94 µM (inactive); in experiment [11], 46.5 µM (inactive); in experiment [12] it was 13.9 µM (inactive); in experiment [13] it was 42.1 µM (inactive); in [14], 6.79 µM (inactive); in [15] it was 27.3 µM (inactive). In addition, the GI50 in experiment [16] is 34 µM (inactive).

In the case of `CCOC(=O)Nc1cc2c(c(N)n1)N=C(c1ccc(OC)cc1)CN2`, the GI50 is 0.00015 µM (active) in [1]; 0.000621 µM in experiment [2]; 0.582 µM (active) in [17]; 0.000895 µM (active) in experiment [3]; < 0.0001 µM (active) in experiment [18]; < 0.0001 µM (active) in experiment [4]. Further, the GI50 was 0.0385 µM (active) in experiment [5]; 0.00434 µM (active) in [19]; 0.000269 µM (active) in experiment [6]; 0.0158 µM (active) in experiment [7]; 0.000637 µM (active) in [8]; 0.0692 µM (active) in experiment [10]. Also, the GI50 in experiment [20] was 0.282 µM (active); in experiment [11] it was 0.000251 µM (active); in experiment [12] it was 0.368 µM (active); in [13], 0.00226 µM (active); in experiment [14], 0.000188 µM (active); in experiment [15] it was 0.000309 µM (active). The GI50 in experiment [16] was 0.186 µM (active).

`COc1cc(C2SCC(=O)N2c2ccc(Cl)c(Cl)c2)cc(OC)c1OC` (stereo unspecified): the GI50 was 24.2 µM (inactive) in [1]; 20.6 µM in [2]; 10.6 µM (inactive) in experiment [17]; 60.5 µM (inactive) in experiment [3]; 11.1 µM (inactive) in [18]; 0.838 µM (active) in experiment [4]. In addition, the GI50 was 99.3 µM (inactive) in experiment [5]; 38.2 µM (inactive) in experiment [19]; 29.8 µM (inactive) in [6]; 7.5 µM (inactive) in experiment [7]; 23.1 µM (inactive) in experiment [8]; 69.5 µM (inactive) in [10]. In addition, the GI50 in experiment [20] was > 100 µM (inactive); in experiment [11], 25.5 µM (inactive); in experiment [12] it was > 37 µM (inactive); in experiment [13] it was 30.2 µM (inactive); in experiment [14] it was 76.6 µM (inactive); in experiment [15], 11.2 µM (inactive). For the same compound, the GI50 in experiment [16] was 32.6 µM (inactive).

On to `COc1ccc(CCC2c3cc(OC)c(OC)cc3CCN2C)cc1OC` (stereo unspecified), for which the GI50 in [1] was > 100 µM (inactive); in experiment [2], greater than 100 µM; in [3] it was > 100 µM (inactive); in experiment [4], > 100 µM (inactive); in experiment [5], > 100 µM (inactive); in [6], > 100 µM (inactive). For the same compound, the GI50 in experiment [7], in experiment [8], in experiment [9], in experiment [10], in experiment [11] and in experiment [12] was > 100 µM (inactive) throughout. For the same compound, the GI50 in experiment [13], in experiment [14], in experiment [15] and in [16] was > 100 µM (inactive) each time.

In the case of `COC(=O)CCC(NC(=O)OC(C)(C)C)C(=O)NC(Cc1ccc([N+](=O)[O-])cc1)C(=O)NCC(=O)OCc1ccccc1` (stereo unspecified) (Boc-Glu(OMe)-[Phe(4-NO2)]-Gly-OBn; configuration not given here), the GI50 in experiment [1] is 27.8 µM (inactive); in experiment [2] it was greater than 100 µM; in experiment [17] it was > 100 µM (inactive); in experiment [3] it was 46.7 µM (inactive); in experiment [18] it was > 100 µM (inactive); in experiment [4] it was > 31.6 µM (inactive). Moreover, the GI50 in experiment [5] is > 82.2 µM (inactive); in [19], > 100 µM (inactive); in [6] it was > 48.5 µM (inactive); in experiment [7] it was > 100 µM (inactive); in experiment [8], > 100 µM (inactive); in experiment [10] it was > 78.9 µM (inactive). The GI50 in experiment [20] is > 100 µM (inactive); in experiment [11], > 100 µM (inactive); in [12], > 64.1 µM (inactive); in experiment [13], > 100 µM (inactive); in experiment [14], 18.6 µM (inactive); in [15] it was > 100 µM (inactive). Besides, the GI50 in [16] was > 100 µM (inactive).

For `CCN(CC)C(=S)S` [DITIOCARB SODIUM], the GI50 in [1] is > 100 µM (inactive); in experiment [2], greater than 62.5 µM; in experiment [3], > 56.1 µM (inactive); in [4], 0.388 µM (active); in [5] it was > 100 µM (inactive); in experiment [6], > 79.6 µM (inactive). For the same compound, the GI50 in experiment [7] is > 100 µM (inactive); in experiment [8], 0.216 µM (active); in [9] it was 88.5 µM (inactive); in experiment [11], 0.0323 µM (active); in experiment [12], > 100 µM (inactive); in [13], 0.373 µM (active). Moreover, the values for the GI50 in [14], in experiment [15] and in experiment [16] were 0.261 µM (active), 41.7 µM (inactive) and 21.2 µM (inactive), respectively.
